Measurements published in ChEMBL document CHEMBL1154412, “In vitro activity of telavancin against gram-positive clinical isolates recently obtained in Europe” (Antimicrob Agents Chemother, 2007).
In brackets after ≈: the same amount, converted by molar mass.

How the values were obtained:
[1] = tested on: Streptococcus sp. 'group B'; assay: Antimicrobial activity against Streptococcus group B after 20 to 24 hrs by broth microdilution method; assay type: functional
[2] = tested on: Streptococcus pneumoniae; assay: Antibacterial activity against penicillin-susceptible Streptococcus pneumoniae after 20 to 24 hrs by broth microdilution method; assay type: functional
[3] = Protein binding in human plasma; assay type: ADME, cell-free; settings: read-out: PB (converted)
[4] = tested on: Homo sapiens; assay: Plasma concentration in human at 7.5 mg/kg; assay type: ADME, organism-based; design: dose 7.5 mg/kg; settings: in vivo
[5] = tested on: Staphylococcus; assay: Antimicrobial activity against methicillin-resistant coagulase-negative Staphylococcus after 20 to 24 hrs by broth microdilution method; assay type: functional
[6] = tested on: Enterococcus faecalis; assay: Antimicrobial activity against vancomycin-resistant Enterococcus faecalis after 20 to 24 hrs by broth microdilution method; assay type: functional
[7] = tested on: Staphylococcus aureus; assay: Antimicrobial activity against methicillin-resistant Staphylococcus aureus after 20 to 24 hrs by broth microdilution method; assay type: functional
[8] = tested on: Enterococcus faecalis; assay: Antimicrobial activity against vancomycin-susceptible Enterococcus faecalis after 20 to 24 hrs by broth microdilution method; assay type: functional
[9] = tested on: Streptococcus viridans; assay: Antimicrobial activity against Streptococcus viridans after 20 to 24 hrs by broth microdilution method; assay type: functional
[10] = tested on: Enterococcus faecium; assay: Antibacterial activity against vancomycin-susceptible Enterococcus faecium after 20 to 24 hrs by broth microdilution method; assay type: functional
[11] = tested on: Staphylococcus; assay: Antimicrobial activity against methicillin-susceptible coagulase-negative Staphylococcus after 20 to 24 hrs by broth microdilution method; assay type: functional
[12] = tested on: Streptococcus pneumoniae; assay: Antibacterial activity against penicillin-resistant Streptococcus pneumoniae after 20 to 24 hrs by broth microdilution method; assay type: functional
[13] = tested on: Enterococcus faecium; assay: Antibacterial activity against vancomycin-resistant Enterococcus faecium after 20 to 24 hrs by broth microdilution method; assay type: functional
[14] = tested on: Streptococcus pneumoniae; assay: Antibacterial activity against penicillin-intermediate Streptococcus pneumoniae after 20 to 24 hrs by broth microdilution method; assay type: functional
[15] = tested on: Staphylococcus aureus; assay: Antimicrobial activity against methicillin-susceptible Staphylococcus aureus after 20 to 24 hrs by broth microdilution method; assay type: functional
[16] = tested on: Streptococcus sp. 'group A'; assay: Antimicrobial activity against Streptococcus group A after 20 to 24 hrs by broth microdilution method; assay type: functional

CCCCCCCCCCNCCN[C@@]1(C)C[C@H](O[C@H]2[C@H](Oc3c4cc5cc3Oc3ccc(cc3Cl)[C@@H](O)[C@@H](NC(=O)[C@@H](CC(C)C)NC)C(=O)N[C@@H](CC(N)=O)C(=O)N[C@H]5C(=O)N[C@H]3C(=O)N[C@H](C(=O)N[C@H](C(=O)O)c5cc(O)c(CNCP(=O)(O)O)c(O)c5-c5cc3ccc5O)[C@H](O)c3ccc(c(Cl)c3)O4)O[C@H](CO)[C@@H](O)[C@@H]2O)O[C@@H](C)[C@H]1O [TELAVANCIN]
MIC50 [1]: 0.06 µg/mL (≈ 0.0342 µM) | MIC90 [1]: 0.06 µg/mL (≈ 0.0342 µM) | MIC50 [2]: 0.015 µg/mL (≈ 0.00854 µM) | MIC90 [2]: 0.03 µg/mL (≈ 0.0171 µM) | fraction unbound [3]: 0.1 | Cp [4]: 96.7 µg/mL | MIC50 [5]: 0.25 µg/mL (≈ 0.142 µM) | MIC90 [5]: 0.25 µg/mL (≈ 0.142 µM) | MIC50 [6]: 4 µg/mL (≈ 2.28 µM) | MIC90 [6]: 8 µg/mL (≈ 4.56 µM) | MIC50 [7]: 0.25 µg/mL (≈ 0.142 µM) | MIC90 [7]: 0.25 µg/mL (≈ 0.142 µM) | MIC50 [8]: 0.25 µg/mL (≈ 0.142 µM) | MIC90 [8]: 0.5 µg/mL (≈ 0.285 µM) | MIC50 [9]: 0.06 µg/mL (≈ 0.0342 µM) | MIC90 [9]: 0.06 µg/mL (≈ 0.0342 µM) | MIC50 [10]: 0.12 µg/mL (≈ 0.0684 µM) | MIC90 [10]: 0.25 µg/mL (≈ 0.142 µM) | MIC50 [11]: 0.25 µg/mL (≈ 0.142 µM) | MIC90 [11]: 0.25 µg/mL (≈ 0.142 µM) | MIC [12]: 0.015 µg/mL (≈ 0.00854 µM) | MIC50 [12]: 0.015 µg/mL (≈ 0.00854 µM) | MIC90 [12]: 0.03 µg/mL (≈ 0.0171 µM) | MIC50 [13]: 1 µg/mL (≈ 0.57 µM) | MIC90 [13]: 2 µg/mL (≈ 1.14 µM) | MIC50 [14]: 0.015 µg/mL (≈ 0.00854 µM) | MIC90 [14]: 0.03 µg/mL (≈ 0.0171 µM) | MIC50 [15]: 0.25 µg/mL (≈ 0.142 µM) | MIC90 [15]: 0.25 µg/mL (≈ 0.142 µM) | MIC [16]: 0.03 µg/mL (≈ 0.0171 µM) | MIC50 [16]: 0.03 µg/mL (≈ 0.0171 µM) | MIC90 [16]: 0.06 µg/mL (≈ 0.0342 µM)
